Test results published in patent publication US11214803B2, “Modulators of YAP1 expression” (Ionis Pharmaceuticals, Inc., priority 2019, dated 2022).
pIC50: −log10 of the molar value. Strand notation (5' to 3'): a small letter for the sugar, then the base; units joined by * are phosphorothioate-linked, units joined directly phosphodiester-linked; [ ] holds rarer units or linkages, { } end groups; capitals alone tell only the bases. e = 2'-O-(2-methoxyethyl) (MOE); k = constrained ethyl (cEt); [5mC] = 5-methylcytosine; d = 2'-deoxy (DNA); m = 2'-O-methyl

Tested on: Yap1 mRNA
Assay: Dose-dependent inhibition of human Yap1 in SNU-449 cells (Example 9, RTS36584)
Assay type: cell-based
Settings: free uptake; for % UTC (Yap1 mRNA): approximately 48 hours; for pIC50: linear regression on a log/linear plot
Procedure, shortened: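 SNU-449 cells (10,000/well) took up modified oligonucleotides by free uptake at a range of doses for about 48 h. Yap1 mRNA was quantified with primer-probe set RTS36584, normalised to RIBOGREEN total RNA and expressed as % untreated control; IC50 from linear regression on log/linear plot.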

Substance | % UTC (Yap1 mRNA) (31.3 nM) [% UTC] | % UTC (Yap1 mRNA) (125.0 nM) [% UTC] | % UTC (Yap1 mRNA) (500.0 nM) [% UTC] | % UTC (Yap1 mRNA) (2000.00 nM) [% UTC] | pIC50
1198499 (kT*kT*dT*dA*dG*dG*dA*dT*dG*d[5mC]*dA*eT*kG*eG*kT*eT) [compound 1198499] | 89 | 42 | 30 | 12 | 6.70
1198484 (kG*k[5mC]*dA*d[5mC]*dT*dT*dT*dT*dA*d[5mC]*dA*eT*kT*eA*kG*eG) [compound 1198484] | 80 | 45 | 24 | 12 | 7.00
1198917 (k[5mC]*kA*d[5mC]*dT*dT*dT*dT*dA*d[5mC]*dA*dT*kT*dA*kG*dG*kA; antisense) [compound 1198917] | 81 | 37 | 12 | 6 | 7.00
1198525 (kA*kG*dT*dG*dT*dA*dT*dG*dT*d[5mC]*dA*eG*kA*eA*kG*eA) [compound 1198525] | 62 | 26 | 8 | 1 | 7.40
1198492 (kG*k[5mC]*dT*dT*dT*dG*dG*dA*dA*dG*dA*eT*k[5mC]*eT*kG*eA; antisense) [compound 1198492] | 67 | 39 | 19 | 10 | 7.00
1198805 (kA*kT*dT*dG*dT*d[5mC]*dT*d[5mC]*dA*dT*dG*k[5mC]*e[5mC]*kT*eT*kA; antisense) [compound 1198805] | 61 | 42 | 20 | 7 | 7.00
1197193 (AGGATGCATGGTTTTT; chemistry not fully specified) [compound 1197193] | 85 | 52 | 24 | 11 | 6.70
1198382 (kT*dT*dA*dG*dA*dG*dT*dA*dT*dG*dT*kG*eG*k[5mC]*eA*kA; antisense) [compound 1198382] | 77 | 56 | 36 | 18 | 6.70
1197216 (kA*kA*kA*dG*dT*dG*dT*dA*dT*dG*dT*d[5mC]*dA*kG*kA*kA; antisense) [compound 1197216] | 66 | 39 | 15 | 4 | 7.00
1198287 (kA*kA*kA*dT*dT*dG*dT*d[5mC]*dT*d[5mC]*dA*dT*kG*e[5mC]*k[5mC]*eT; antisense) [compound 1198287] | 95 | 68 | 36 | 16 | 6.52
1198384 (kT*dA*dT*dT*dA*dG*dA*dG*dT*dA*dT*kG*eT*kG*eG*k[5mC]; antisense) [compound 1198384] | 76 | 50 | 24 | 17 | 7.00
1198787 (kA*eG*kT*dG*dT*dA*dT*dG*dT*d[5mC]*dA*dG*eA*eA*kG*kA; antisense) [compound 1198787] | 68 | 21 | 6 | 1 | 7.30
1198543 (kA*kT*kT*dG*dT*d[5mC]*dT*d[5mC]*dA*dT*dG*d[5mC]*k[5mC]*kT*kT*eA; antisense) [compound 1198543] | 75 | 42 | 19 | 6 | 7.00
1198347 (kG*kT*kA*dA*dT*dA*dT*dT*dG*d[5mC]*dA*dA*kT*e[5mC]*kT*eG) [compound 1198347] | 67 | 54 | 24 | 8 | 7.00
1198524 (kT*kG*dT*dA*dT*dG*dT*d[5mC]*dA*dG*dA*eA*kG*eA*kG*eT; antisense) [compound 1198524] | 50 | 32 | 9 | 3 | > 7.52
1198552 (kA*kG*kA*dG*dT*dA*dT*dG*dT*dG*dG*d[5mC]*kA*kA*kT*eA; antisense) [compound 1198552] | 72 | 46 | 23 | 9 | 7.00
1198875 (kA*kA*dA*dG*dT*dG*dT*dA*dT*dG*dT*k[5mC]*eA*kG*eA*kA; antisense) [compound 1198875] | 61 | 23 | 4 | 1 | 7.40
1200861 (kT*kT*kA*dA*dA*mG*dT*dG*dT*dA*dT*dG*dT*k[5mC]*kA*kG; antisense) [compound 1200861] | 74 | 43 | 17 | 4 | 7.00
1198290 (kT*kG*kG*dA*dA*dA*dT*dT*dG*dT*d[5mC]*dT*k[5mC]*eA*kT*eG; antisense) [compound 1198290] | 60 | 39 | 20 | 10 | 7.00
1198365 (k[5mC]*kT*kA*dA*dG*dT*dA*dA*dG*dG*dT*dT*kT*e[5mC]*k[5mC]*e[5mC]; antisense) [compound 1198365] | 59 | 38 | 15 | 5 | 7.00
1198546 (kG*kA*kA*dA*dT*dT*dG*dT*d[5mC]*dT*d[5mC]*dA*kT*kG*k[5mC]*e[5mC]) [compound 1198546] | 70 | 42 | 18 | 6 | 7.00
1198457 (kA*kT*dT*dG*dT*d[5mC]*dT*d[5mC]*dA*dT*dG*e[5mC]*k[5mC]*eT*kT*eA; antisense) [compound 1198457] | 82 | 56 | 31 | 12 | 6.70
1200860 (kT*kA*kA*dA*dG*mU*dG*dT*dA*dT*dG*dT*d[5mC]*kA*kG*kA; antisense) [compound 1200860] | 59 | 35 | 15 | 5 | 7.30
1197236 (kT*kA*kT*dT*mA*dG*dA*dG*dT*dA*dT*dG*dT*kG*kG*k[5mC]; antisense) [compound 1197236] | 64 | 46 | 25 | 14 | 7.00
